Experimental data: patent US9334289B2, “Cephem compound having catechol or pseudo-catechol structure” (SHIONOGI & CO., LTD., priority 2011, dated 2016)
≈ marks a conversion by molar mass, not a printed value.

Key:
Assay in all cases: MIC, CLSI broth microdilution, Test Example 1
Assay type in all cases: cell-based
[1] = tested on: P. aeruginosa SR24837; details: Pseudomonas aeruginosa, SR24837; PER-1 ESBL producing strain; cation-adjusted Mueller Hinton broth containing human apo-transferrin; 5×10^5 cfu/mL; read-out: Minimum Inhibitory Concentration (MIC) P. aeruginosa SR24837
Procedure: (§1) Measurement of Minimum Inhibitory Concentration (MIC: μg/mL) was conducted according to CLSI (Clinical and Laboratory Standards Institute) method, and the amount of bacteria for inoculation was 5×10^5 cfu/mL, and cation-adjusted Mueller Hinton broth containing human apo-transferrin was used as a test medium, and the experiment was conducted using broth microdilution method. The bacteria used are listed below.

[2] = tested on: E. coli ATCCBAA-200; details: Escherichia coli, ATCCBAA200; SHV-4 ESBL producing strain; cation-adjusted Mueller Hinton broth containing human apo-transferrin; 5×10^5 cfu/mL; read-out: Minimum Inhibitory Concentration (MIC) E. coli ATCC BAA-200
Procedure: as §1

[3] = tested on: K. pneumoniae ATCCBAA-1705; details: Klebsiella pneumoniae, ATCCBAA1705; KPC-2 carbapenemase producing strain; cation-adjusted Mueller Hinton broth containing human apo-transferrin; 5×10^5 cfu/mL; read-out: Minimum Inhibitory Concentration (MIC) K. pneumoniae ATCCBAA-1705
Procedure: as §1

[4] = tested on: E. coli ATCCBAA-199; details: Escherichia coli, ATCCBAA199; SHV-3 ESBL producing strain; cation-adjusted Mueller Hinton broth containing human apo-transferrin; 5×10^5 cfu/mL; read-out: Minimum Inhibitory Concentration (MIC) E. coli ATCC BAA-199
Procedure: as §1

[5] = tested on: A. baumannii SR27323; details: Acinetobacter baumannii, SR27323; OXA-23, OXA-58 carbapenemase producing strain; cation-adjusted Mueller Hinton broth containing human apo-transferrin; 5×10^5 cfu/mL; read-out: Minimum Inhibitory Concentration (MIC) A. baumannii SR27323
Procedure: as §1

[6] = tested on: P. aeruginosa SR27060; details: Pseudomonas aeruginosa, SR27060; IMP-1 MBL producing strain (carbapenem resistance strain); cation-adjusted Mueller Hinton broth containing human apo-transferrin; 5×10^5 cfu/mL; read-out: Minimum Inhibitory Concentration (MIC) P. aeruginosa SR27060
Procedure: as §1

[7] = tested on: P. aeruginosa SR24; details: Pseudomonas aeruginosa, SR24; Ceftazidime resistance strain; cation-adjusted Mueller Hinton broth containing human apo-transferrin; 5×10^5 cfu/mL; read-out: Minimum Inhibitory Concentration (MIC) P. aeruginosa SR24

Row | SMILES | MIC [1] [µg/mL] | MIC [2] [µg/mL] | MIC [3] [µg/mL] | MIC [4] [µg/mL] | MIC [5] [µg/mL] | MIC [6] [µg/mL] | MIC [7] [µg/mL]
1 | CC(C)(O/N=C(\C(=O)N[C@@H]1C(=O)N2C(c3nnn[n-]3)=C(C[N+]3(C)[C@@H]4CC[C@H]3C[C@@H](NC(=O)c3ccc(O)c(O)c3Cl)C4)CS[C@H]12)c1csc(N)n1)C(=O)[O-].[Na+] (stereo partly drawn) [Compound I-2] | 0.25 | 1 | ≤ 0.031 | 0.5 | 1 | 1 | 0.25
2 | CC(C)(O/N=C(\C(=O)N[C@@H]1C(=O)N2C(c3nn[n-]n3)=C(C[n+]3ccc(NCc4ccc(O)c(O)c4Cl)cc3)CS[C@H]12)c1csc(N)n1)C(=O)[O-].[Na+] [Compound I-49] | 0.25 | 0.5 | ≤ 0.031 | 0.25 | 1 | 1 | 0.063
3 | CC(C)(O/N=C(\C(=O)N[C@@H]1C(=O)N2C(c3nnn[n-]3)=C(C[N+]3(CCNC(=O)c4ccc(O)c(O)c4F)CCCC3)CS[C@H]12)c1csc(N)n1)C(=O)[O-].[Na+] [Compound I-54] | 0.25 | 0.5 | ≤ 0.031 | 0.25 | 1 | 0.25 | ≤ 0.031
4 | CC(C)(O/N=C(\C(=O)N[C@@H]1C(=O)N2C(c3nn[n-]n3)=C(C[N+]3(C)CCC(NC(=O)c4ccc(O)c(O)c4Cl)CC3)CS[C@H]12)c1csc(N)n1)C(=O)[O-].[Na+] (stereo partly drawn) [Compound I-47] | 0.5 | 1 | 0.063 | 0.5 | 0.25 | 1 | 0.125
5 | CC(C)(O/N=C(\C(=O)N[C@@H]1C(=O)N2C(c3nnn[n-]3)=C(C[N+]3(CCNC(=O)c4ccc(O)c(O)c4Cl)CCCC3)C[S+]([O-])[C@H]12)c1csc(N)n1)C(=O)[O-].[Na+] (stereo partly drawn) [Compound I-7] | 1 | 0.5 | 0.063 | 0.25 | 16 | 4 | 2
6 | CC(C)(O/N=C(\C(=O)N[C@@H]1C(=O)N2C(c3nnn[nH]3)=C(C[n+]3cccc4c(NC(=O)c5ccc(O)c(O)c5Cl)cccc43)CS[C@H]12)c1csc(N)n1)C(=O)[O-] [Compound I-76] | 0.125 (≈ 0.155 µM) | 0.5 (≈ 0.62 µM) | ≤ 0.031 | 0.25 (≈ 0.31 µM) | 0.5 (≈ 0.62 µM) | 0.5 (≈ 0.62 µM) | 0.125 (≈ 0.155 µM)
7 | CC(C)(O/N=C(\C(=O)N[C@@H]1C(=O)N2C(c3nnn[n-]3)=C(C[N+]3(CCNC(=O)c4cc(O)c(O)c(Cl)c4)CCCC3)CS[C@H]12)c1csc(N)n1)C(=O)[O-].[Na+] [Compound I-52] | 2 | 0.5 | ≤ 0.031 | 0.125 | 1 | 1 | 0.25
8 | CC(C)(O/N=C(\C(=O)N[C@@H]1C(=O)N2C(c3nnn[n-]3)=C(C[N+]3(CCNC(=O)c4cc(O)c(O)cc4F)CCCC3)CS[C@H]12)c1csc(N)n1)C(=O)[O-].[Na+] [Compound I-55] | 0.5 | 1 | ≤ 0.031 | 0.25 | 2 | 1 | 0.25
9 | CC(C)(O/N=C(\C(=O)N[C@@H]1C(=O)N2C(c3nnn[nH]3)=C(C[n+]3cccc4c3CCCN4C(=O)c3ccc(O)c(O)c3Cl)CS[C@H]12)c1csc(N)n1)C(=O)[O-] [Compound I-75] | 0.063 (≈ 0.0791 µM) | 0.5 (≈ 0.628 µM) | 0.063 (≈ 0.0791 µM) | 0.125 (≈ 0.157 µM) | 1 (≈ 1.26 µM) | 0.25 (≈ 0.314 µM) | 0.063 (≈ 0.0791 µM)
10 | CC(C)(O/N=C(\C(=O)N[C@@H]1C(=O)N2C(c3nnn[nH]3)=C(C[N+]3(CCNC(=O)c4cc(Cl)c(O)c(O)c4Cl)CCCC3)CS[C@H]12)c1csc(N)n1)C(=O)[O-] [Compound I-53] | 0.063 (≈ 0.0777 µM) | 0.125 (≈ 0.154 µM) | ≤ 0.031 | 0.063 (≈ 0.0777 µM) | 1 (≈ 1.23 µM) | 0.5 (≈ 0.617 µM) | 0.25 (≈ 0.308 µM)
11 | CC(C)(O/N=C(\C(=O)N[C@@H]1C(=O)N2C(c3nnn[n-]3)=C(C[N+]34CCC(CNC(=O)c5cc(=O)c(O)cn5O)(CC3)CC4)CS[C@H]12)c1csc(N)n1)C(=O)[O-].[Na+] [Compound I-18] | 1 | 0.25 | ≤ 0.031 | 0.125 | 0.125 | 2 | 0.5
12 | Nc1nc(/C(=N/O[C@@H](CC(=O)[O-])C(=O)[O-])C(=O)N[C@@H]2C(=O)N3C(c4nnn[n-]4)=C(C[N+]4(CCNC(=O)c5ccc(O)c(O)c5Cl)CCCC4)CS[C@H]23)cs1.[Na+].[Na+] [Compound I-3] | 2 | 0.063 | ≤ 0.031 | ≤ 0.031 | 0.25 | 1 | 0.5

Second part, the compound after the results:

Row | MIC [1] [µg/mL] | MIC [2] [µg/mL] | MIC [3] [µg/mL] | MIC [4] [µg/mL] | MIC [5] [µg/mL] | MIC [6] [µg/mL] | MIC [7] [µg/mL] | SMILES
13 | 1 | 0.5 | ≤ 0.031 | 0.125 | 0.5 | 0.5 | 0.25 | CC(C)(O/N=C(\C(=O)N[C@@H]1C(=O)N2C(c3nn[n-]n3)=C(C[N+]3(Cc4nc(-c5ccc(O)c(O)c5Cl)no4)CCCC3)CS[C@H]12)c1csc(N)n1)C(=O)[O-].[Na+] [Compound I-46]
14 | 2 | 1 | 0.063 | 0.5 | 0.125 | 0.5 | 0.25 | CC(C)(O/N=C(\C(=O)N[C@@H]1C(=O)N2C(c3nnn[n-]3)=C(C[N+]34CCC[C@H]3CN(C(=O)c3cc(O)c(O)c(F)c3)CC4)CS[C@H]12)c1csc(N)n1)C(=O)[O-].[Na+] (stereo partly drawn) [Compound I-5]
15 | 0.125 (≈ 0.155 µM) | 0.5 (≈ 0.62 µM) | ≤ 0.031 | 0.25 (≈ 0.31 µM) | 0.25 (≈ 0.31 µM) | 0.25 (≈ 0.31 µM) | 0.125 (≈ 0.155 µM) | CC(C)(O/N=C(\C(=O)N[C@@H]1C(=O)N2C(c3nnn[nH]3)=C(C[n+]3ccc(NC(=O)c4ccc(O)c(O)c4Cl)c4ccccc43)CS[C@H]12)c1csc(N)n1)C(=O)[O-] [Compound I-78]
16 | 1 | 0.25 | ≤ 0.031 | 0.25 | 1 | 0.25 | 0.125 | CC(C)(O/N=C(\C(=O)N[C@@H]1C(=O)N2C(c3nnn[n-]3)=C(Cn3cc(NC(=O)c4ccc(O)c(O)c4Cl)[n+]4c3CCCC4)CS[C@H]12)c1csc(N)n1)C(=O)[O-].[Na+] [Compound I-16]
17 | ≤ 0.031 | 0.063 | ≤ 0.031 | ≤ 0.031 | 0.125 | 0.25 | ≤ 0.031 | CC(C)(O/N=C(\C(=O)N[C@@H]1C(=O)N2C(c3nnn[n-]3)=C(C[n+]3ccc4cc(O)c(O)cc4c3)CS[C@H]12)c1csc(N)n1)C(=O)[O-].[Na+] [Compound I-77]
18 | 0.063 | 1 | ≤ 0.031 | 0.5 | 0.125 | 0.25 | ≤ 0.031 | CC(C)(O/N=C(\C(=O)N[C@@H]1C(=O)N2C(c3nnn[n-]3)=C(C[n+]3ccc(-c4ccc(O)c(O)c4Cl)cc3)CS[C@H]12)c1csc(N)n1)C(=O)[O-].[Na+] [Compound I-79]
